≈ marks a conversion by molar mass, not a printed value. Numbered stars: 1 amine (or outer) side, 2 acyl side, 3 side chain; on linkers, the order of the positions; unused ones are H or OH. Peptide text beside a SMILES is read from it. * marks the point of attachment. C20 diacid = O=C(O)CCCCCCCCCCCCCCCCCCC(=O)*; C18 diacid = O=C(O)CCCCCCCCCCCCCCCCC(=O)*; γGlu = O=C(O)[C@H](CCC(=O)[*:2])N[*:1]; C12 diacid = O=C(O)CCCCCCCCCCC(=O)*
Experiments:
[1] = Solubility in 100 mM glycylglycine buffer at pH 3.0 incubated for 18 hrs by UPLC analysis; type: physicochemical
[2] = Solubility in 100 mM bistrispropane buffer at pH 6.0 incubated for 18 hrs by UPLC analysis; type: physicochemical
[3] = biological target: T1, Amylin receptor AMY3; CALCR/RAMP3 (Homo sapiens, UniProt O60896+P30988); test: Displacement of [125I]-labeled rat amylin from human amylin receptor expressed in BHK tkts13 whole cells co-expressing RAMP3 incubated for 60 mins by scintillation proximity assay; type: cell-based
T1 sequence (P30988 whole entry): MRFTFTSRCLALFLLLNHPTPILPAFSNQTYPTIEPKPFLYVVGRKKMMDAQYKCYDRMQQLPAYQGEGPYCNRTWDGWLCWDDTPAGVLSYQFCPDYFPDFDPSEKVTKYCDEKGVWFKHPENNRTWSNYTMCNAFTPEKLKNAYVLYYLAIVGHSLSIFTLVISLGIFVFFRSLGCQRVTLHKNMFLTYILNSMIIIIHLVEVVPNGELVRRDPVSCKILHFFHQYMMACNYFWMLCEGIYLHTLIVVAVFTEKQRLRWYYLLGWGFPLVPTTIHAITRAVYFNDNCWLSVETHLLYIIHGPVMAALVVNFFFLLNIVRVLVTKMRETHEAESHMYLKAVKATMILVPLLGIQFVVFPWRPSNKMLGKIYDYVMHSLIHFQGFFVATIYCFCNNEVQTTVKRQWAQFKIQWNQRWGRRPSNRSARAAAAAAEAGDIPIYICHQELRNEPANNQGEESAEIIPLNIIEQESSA
T1 sequence (O60896 whole entry): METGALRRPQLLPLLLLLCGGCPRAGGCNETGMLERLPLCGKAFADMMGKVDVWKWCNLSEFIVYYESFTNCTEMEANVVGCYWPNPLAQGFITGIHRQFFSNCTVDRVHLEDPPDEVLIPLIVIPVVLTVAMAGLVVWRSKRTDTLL

[4] = Solubility in 100 mM bistrispropane buffer at pH 7.5 incubated for 18 hrs by UPLC analysis; type: physicochemical
[5] = Solubility in 100 mM bistrispropane buffer at pH 8.0 incubated for 18 hrs by UPLC analysis; type: physicochemical
[6] = biological target: T2, Calcitonin receptor (Homo sapiens, UniProt P30988); test: Agonist activity at human calcitonin receptor expressed in BHK570 cells assessed as increase in intracellular cAMP concentration incubated for 3 hrs in presence of 10% FBS by CRE luciferase reporter gene assay; type: functional, cell-based
T2 sequence (P30988 whole entry): T1 sequence (P30988 whole entry)

[7] = Solubility in 100 mM bistrispropane buffer at pH 7.0 incubated for 18 hrs by UPLC analysis; type: physicochemical
[8] = biological target: T2, Calcitonin receptor; test: Agonist activity at human calcitonin receptor expressed in BHK570 cells assessed as increase in intracellular cAMP concentration incubated for 3 hrs in absence of albumin by CRE luciferase reporter gene assay; type: functional, cell-based
[9] = Solubility in 100 mM glycylglycine buffer at pH 5.0 incubated for 18 hrs by UPLC analysis; type: physicochemical
[10] = biological target: T1, Amylin receptor AMY3; CALCR/RAMP3; test: Agonist activity at human amylin receptor expressed in BHK570 cells co-expressing RAMP3 assessed as increase in intracellular cAMP concentration incubated for 3 hrs in presence of 10% FBS by CRE luciferase reporter gene assay; type: functional, cell-based
[11] = Solubility in 100 mM glycylglycine buffer at pH 4.0 incubated for 18 hrs by UPLC analysis; type: physicochemical
[12] = biological target: T1, Amylin receptor AMY3; CALCR/RAMP3; test: Agonist activity at human amylin receptor expressed in BHK570 cells co-expressing RAMP3 assessed as increase in intracellular cAMP concentration incubated for 3 hrs in absence of albumin by CRE luciferase reporter gene assay; type: functional, cell-based
[13] = Solubility in 100 mM bistrispropane buffer at pH 6.5 incubated for 18 hrs by UPLC analysis; type: physicochemical
[14] = system: Rattus norvegicus; test: Reduction in food intake in Sprague-Dawley rat at 3 nmol/kg measured 0 to 24 hrs post dose relative to control; type: functional; design: scale not given: the % may be the effect or the level left
[15] = system: Rattus norvegicus; test: Reduction in food intake in Sprague-Dawley rat at 3 nmol/kg measured 24 to 48 hrs post dose relative to control; type: functional; design: scale not given: the % may be the effect or the level left

SMILES | solubility at 18 h [1] [µM] | solubility at 18 h [2] [µM] | IC50 [3] [nM] | solubility at 18 h [4] [µM] | solubility at 18 h [5] [µM] | EC50 [6] [nM] | solubility at 18 h [7] [µM] | EC50 [8] [nM] | solubility at 18 h [9] [µM] | EC50 [10] [nM] | solubility at 18 h [11] [µM] | EC50 [12] [nM] | solubility at 18 h [13] [µM] | Activity [14] [%] | Activity [15] [%]
CC(C)C[C@H](NC(=O)[C@H](CCC(=O)O)NC(=O)[C@H](Cc1cnc[nH]1)NC(=O)[C@H](CC(C)C)NC(=O)[C@H](CCC(=O)O)NC(=O)[C@H](C)NC(=O)[C@H](CO)NC(=O)[C@H](CC(C)C)NC(=O)[C@H](CCCNC(=N)N)NC(=O)CNC(=O)[C@H](CC(C)C)NC(=O)[C@@H](NC(=O)[C@H](C)NC(=O)[C@@H](NC(=O)[C@H](CO)NC(=O)[C@H](CC(C)C)NC(=O)[C@H](CCC(=O)O)NC(=O)[C@H](CO)NC(=O)[C@H](C)NC(=O)CC[C@H](NC(=O)CCCCCCCCCCCCCCCCC(=O)O)C(=O)O)[C@@H](C)O)C(C)C)C(=O)N[C@@H](C)C(=O)N[C@H](C(=O)N[C@@H](CC(C)C)C(=O)N1CCC[C@H]1C(=O)N[C@@H](CCCNC(=N)N)C(=O)N[C@H](C(=O)N[C@@H](CCC(=O)O)C(=O)N[C@H](C(=O)NCC(=O)N[C@@H](CO)C(=O)NCC(=O)N[C@@H](CO)C(=O)N1CCC[C@H]1C(N)=O)[C@@H](C)O)[C@@H](C)O)[C@@H](C)O ({C18 diacid-γGlu}-ASELSTAVLGRLSAELHELATLPRTETGSGSP-NH2) | ≥ 200 | ≥ 200 | 0.764 | ≥ 200 | ≥ 200 | 0.011 | ≥ 200 | 0.014 | ≥ 200 | 0.017 | ≥ 200 | 0.01 | ≥ 200 |  | 
CC(C)C[C@H](NC(=O)[C@H](C)NC(=O)[C@H](C)NC(=O)[C@@H](NC(=O)[C@H](CO)NC(=O)[C@H](CC(C)C)NC(=O)[C@H](CCC(=O)O)NC(=O)[C@H](CO)NC(=O)[C@H](C)NC(=O)[C@H](CCC(=O)O)NC(=O)CCCCCCCCCCC(=O)O)[C@@H](C)O)C(=O)NCC(=O)N[C@@H](CCCNC(=N)N)C(=O)N[C@@H](CC(C)C)C(=O)N[C@@H](CO)C(=O)N[C@@H](C)C(=O)N[C@@H](CCC(=O)O)C(=O)N[C@@H](CC(C)C)C(=O)N[C@@H](Cc1cnc[nH]1)C(=O)N[C@@H](CCC(=O)O)C(=O)N[C@@H](CC(C)C)C(=O)N[C@@H](C)C(=O)N[C@H](C(=O)N[C@@H](CC(C)C)C(=O)N1CCC[C@H]1C(=O)N[C@@H](CCCNC(=N)N)C(=O)N[C@H](C(=O)N[C@@H](CCC(=O)O)C(=O)N[C@H](C(=O)NCC(=O)N1CCC[C@H]1C(=O)N[C@@H](CCC(=O)O)C(=O)N[C@@H](CO)C(=O)N1CCC[C@H]1C(N)=O)[C@@H](C)O)[C@@H](C)O)[C@@H](C)O ({C12 diacid}-EASELSTAALGRLSAELHELATLPRTETGPESP-NH2) |  |  | 8.97 |  |  |  |  | 0.008 |  |  |  | 0.023 | 5 (≈ 18.2 µg/mL) | 2 | -12
CC(C)C[C@H](NC(=O)[C@H](C)NC(=O)[C@H](C)NC(=O)[C@@H](NC(=O)[C@H](CO)NC(=O)[C@H](CC(C)C)NC(=O)[C@H](CCC(=O)O)NC(=O)[C@H](CO)NC(=O)[C@H](C)NC(=O)CC[C@H](NC(=O)CCCCCCCCCCCCCCCCC(=O)O)C(=O)O)[C@@H](C)O)C(=O)NCC(=O)N[C@@H](CCCNC(=N)N)C(=O)N[C@@H](CC(C)C)C(=O)N[C@@H](CO)C(=O)N[C@@H](C)C(=O)N[C@@H](CCC(=O)O)C(=O)N[C@@H](CC(C)C)C(=O)N[C@@H](Cc1c[nH]cn1)C(=O)N[C@@H](CCC(=O)O)C(=O)N[C@@H](CC(C)C)C(=O)N[C@@H](C)C(=O)N[C@H](C(=O)N[C@@H](Cc1ccc(O)cc1)C(=O)N1CCC[C@H]1C(=O)N[C@@H](CCCNC(=N)N)C(=O)N[C@H](C(=O)N[C@@H](CCC(=O)O)C(=O)N[C@H](C(=O)NCC(=O)N[C@@H](CO)C(=O)NCC(=O)N[C@@H](CO)C(=O)N1CCC[C@H]1C(N)=O)[C@@H](C)O)[C@@H](C)O)[C@@H](C)O ({C18 diacid-γGlu}-ASELSTAALGRLSAELHELATYPRTETGSGSP-NH2) |  |  |  |  |  |  |  |  |  |  |  |  |  | 74 | 63
CC(C)C[C@H](NC(=O)[C@H](C)NC(=O)[C@H](C)NC(=O)[C@@H](NC(=O)[C@H](CO)NC(=O)[C@H](CC(C)C)NC(=O)[C@H](CCC(=O)O)NC(=O)[C@H](CO)NC(=O)[C@H](C)NC(=O)CC[C@H](NC(=O)CCCCCCCCCCCCCCCCCCC(=O)O)C(=O)O)[C@@H](C)O)C(=O)NCC(=O)N[C@@H](Cc1cnc[nH]1)C(=O)N[C@@H](CC(C)C)C(=O)N[C@@H](CO)C(=O)N[C@@H](C)C(=O)N[C@@H](CCC(=O)O)C(=O)N[C@@H](CC(C)C)C(=O)N[C@@H](Cc1cnc[nH]1)C(=O)N[C@@H](CCC(=O)O)C(=O)N[C@@H](CC(C)C)C(=O)N[C@@H](C)C(=O)N[C@H](C(=O)N[C@@H](CC(C)C)C(=O)N1CCC[C@H]1C(=O)N[C@@H](Cc1cnc[nH]1)C(=O)N[C@H](C(=O)N[C@@H](CCC(=O)O)C(=O)N[C@H](C(=O)NCC(=O)N[C@@H](CO)C(=O)NCC(=O)N[C@@H](CO)C(=O)N1CCC[C@H]1C(N)=O)[C@@H](C)O)[C@@H](C)O)[C@@H](C)O ({C20 diacid-γGlu}-ASELSTAALGHLSAELHELATLPHTETGSGSP-NH2) | ≥ 200 | ≥ 200 |  | ≥ 200 | ≥ 200 | 0.123 | ≥ 200 | 0.012 | ≥ 200 |  | ≥ 200 | 0.026 | ≥ 200 | 7 | 3
CC(C)C[C@H](NC(=O)CNC(=O)[C@H](CO)NC(=O)[C@H](C)NC(=O)[C@H](CCC(=O)O)NC(=O)CC[C@H](NC(=O)CCCCCCCCCCCCCCCCCCC(=O)O)C(=O)O)C(=O)N[C@@H](CO)C(=O)N[C@H](C(=O)N[C@@H](C)C(=O)N[C@@H](C)C(=O)N[C@@H](CC(C)C)C(=O)NCC(=O)N[C@@H](CCCNC(=N)N)C(=O)N[C@@H](CC(C)C)C(=O)N[C@@H](CO)C(=O)N[C@@H](CCC(N)=O)C(=O)N[C@@H](CCC(=O)O)C(=O)N[C@@H](CC(C)C)C(=O)N[C@@H](Cc1cnc[nH]1)C(=O)N[C@@H](CCC(=O)O)C(=O)N[C@@H](CC(C)C)C(=O)N[C@@H](CCC(N)=O)C(=O)N[C@H](C(=O)N[C@@H](Cc1ccc(O)cc1)C(=O)N1CCC[C@H]1C(=O)N[C@@H](CCCNC(=N)N)C(=O)N[C@H](C(=O)N[C@@H](CCC(=O)O)C(=O)N[C@H](C(=O)NCC(=O)N[C@@H](CO)C(=O)NCC(=O)N[C@H](C(=O)N[C@@H](Cc1ccc(O)cc1)C(N)=O)[C@@H](C)O)[C@@H](C)O)[C@@H](C)O)[C@@H](C)O)[C@@H](C)O ({C20 diacid-γGlu}-EASGLSTAALGRLSQELHELQTYPRTETGSGTY-NH2) | ≥ 200 | ≥ 200 |  | ≥ 200 | ≥ 200 | 0.092 | ≥ 200 | 0.023 |  |  | ≥ 200 |  | ≥ 200 | 23 | 10

Reference: ChEMBL document CHEMBL4420076, “Amylin and calcitonin receptor agonist” (2017)
